Data taken from US20240327506A1, “METHODS AND COMPOSITION FOR THE SELECTIVE ENHANCEMENT OF ADOPTIVE CELL THERAPY” (MaineHealth, priority 2023, published 2024).

Assays:
[1] = system: angiogenesis and inflammation; details: peptide; cited from earlier work
[2] = system: primary murine CD4+ Treg cells; assay: Migration of primary CD4+ Treg cells on denatured collagen type-IV; assay type: cell-based; details: Treg from spleens of B16F10 tumor bearing mice, compared to CP
Procedure: Briefly, mice (C57BL/6) were injected subcutaneously with B16F10 cells. B16F10 tumors were allowed to grow for 14-days to allow formation of solid malignant melanomas. Spleens from tumor bearing mice were dissected and primary murine CD4+ Treg cells were isolated and analyzed for the effects of the soluble collagen peptide (P2) or control peptide (CP) on cell migration on denatured collagen type-IV. Data bars represent mean CD4+ Treg cell migration+SE from 3 wells per condition.
Given our surprising finding that CD4+ Treg cell migration is enhanced on denatured collagen-IV as compared to native collagen-IV, we next tested whether CD4+ Treg cell migration through denatured collagen-IV is altered by endogenously generated soluble RGDKGE (SEQ ID NO: 1) collagen peptide P2. For these experiments, mice (C57BL/6) were injected subcutaneously with B16F10 cells. B16F10 tumors were allowed to grow for 14-days to allow formation of solid malignant melanomas. Spleens from tumor bearing mice were dissected and primary murine CD4+ Treg cells were isolated and analyzed for the effects of the soluble collagen peptide (P2) or control peptide (CP) on cell migration on denatured collagen type-IV. […]

[3] = system: primary CD8+ T-cells from melanoma bearing C57BL/6 mice; assay: Transwell migration of primary CD8+ T-cells through collagen type-IV; assay type: cell-based, murine; details: peptide
Procedure: FIGS. 4A-4H. […] Briefly, membranes from transwell migration chambers were coated with either native collagen type-IV or denatured collagen type-IV. T-cell variants were incubated with non-specific control peptide CP, or the RGDKGE (SEQ ID NO: 1)-containing collagen peptide (P2) and seed on the coated transwell membranes. T-cells were allowed to migrate in the presence or absence of SDF-1 added to the lower chamber for approximately 1.5 hours. Cell migration was quantified by counting the number of crystal violet stained cells that had migrated through to the underside of the coated membrane. FIG. 4A. Jurkat T-cell migration through denatured collagen type-IV in the presence of non-specific control peptide CP or RGDKGE (SEQ ID NO: 1)-containing collagen peptide P2 with SDF-1. FIG. 4B. Jurkat T-cell migration through native collagen type-IV in the presence of non-specific control peptide CP or RGDKGE (SEQ ID NO: 1)-containing collagen peptide P2 with SDF-1. FIG. 4C. Cem/C1 T-cell migration through denatured collagen type-IV in the presence of non-specific control peptide CP or RGDKGE (SEQ ID NO: 1)-containing collagen peptide P2 with SDF-1. FIG. 4D. […]
FIGS. 5A-5F. […] Cell migration was quantified by counting the number of crystal violet stained cells that had migrated through to the underside of the coated membrane. […]

[4] = molecular target: αvβ3 (Homo sapiens, UniProt P05106+P06756); details: cited from earlier work
αvβ3, sequence (P06756 31-889 limits assumed): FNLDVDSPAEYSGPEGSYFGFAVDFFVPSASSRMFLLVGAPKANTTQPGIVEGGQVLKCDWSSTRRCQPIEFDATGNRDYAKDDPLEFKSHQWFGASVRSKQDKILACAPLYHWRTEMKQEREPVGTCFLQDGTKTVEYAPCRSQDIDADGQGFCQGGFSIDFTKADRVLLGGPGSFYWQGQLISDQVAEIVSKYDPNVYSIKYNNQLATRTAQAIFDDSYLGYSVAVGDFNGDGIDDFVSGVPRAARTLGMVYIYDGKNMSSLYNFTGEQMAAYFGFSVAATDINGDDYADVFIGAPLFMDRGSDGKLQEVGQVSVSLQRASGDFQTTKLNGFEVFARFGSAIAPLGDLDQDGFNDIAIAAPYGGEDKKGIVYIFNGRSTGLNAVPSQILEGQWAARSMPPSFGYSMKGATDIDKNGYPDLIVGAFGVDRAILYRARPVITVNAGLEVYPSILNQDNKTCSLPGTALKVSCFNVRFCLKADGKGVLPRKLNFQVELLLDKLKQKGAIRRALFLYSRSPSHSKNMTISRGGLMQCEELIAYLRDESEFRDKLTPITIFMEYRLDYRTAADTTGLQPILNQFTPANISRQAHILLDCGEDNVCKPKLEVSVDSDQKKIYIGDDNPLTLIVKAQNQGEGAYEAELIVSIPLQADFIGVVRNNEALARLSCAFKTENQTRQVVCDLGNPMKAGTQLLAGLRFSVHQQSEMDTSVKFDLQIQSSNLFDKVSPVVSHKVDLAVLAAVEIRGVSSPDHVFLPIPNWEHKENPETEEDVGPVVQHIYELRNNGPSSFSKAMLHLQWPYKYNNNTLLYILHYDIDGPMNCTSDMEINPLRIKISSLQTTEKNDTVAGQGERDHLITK
αvβ3, sequence (P06756 891-1048 partner limits assumed): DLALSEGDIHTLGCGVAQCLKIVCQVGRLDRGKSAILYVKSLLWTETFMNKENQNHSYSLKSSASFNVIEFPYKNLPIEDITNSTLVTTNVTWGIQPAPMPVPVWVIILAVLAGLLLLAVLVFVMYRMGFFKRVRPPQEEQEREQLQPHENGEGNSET
αvβ3, sequence (P05106 27-788): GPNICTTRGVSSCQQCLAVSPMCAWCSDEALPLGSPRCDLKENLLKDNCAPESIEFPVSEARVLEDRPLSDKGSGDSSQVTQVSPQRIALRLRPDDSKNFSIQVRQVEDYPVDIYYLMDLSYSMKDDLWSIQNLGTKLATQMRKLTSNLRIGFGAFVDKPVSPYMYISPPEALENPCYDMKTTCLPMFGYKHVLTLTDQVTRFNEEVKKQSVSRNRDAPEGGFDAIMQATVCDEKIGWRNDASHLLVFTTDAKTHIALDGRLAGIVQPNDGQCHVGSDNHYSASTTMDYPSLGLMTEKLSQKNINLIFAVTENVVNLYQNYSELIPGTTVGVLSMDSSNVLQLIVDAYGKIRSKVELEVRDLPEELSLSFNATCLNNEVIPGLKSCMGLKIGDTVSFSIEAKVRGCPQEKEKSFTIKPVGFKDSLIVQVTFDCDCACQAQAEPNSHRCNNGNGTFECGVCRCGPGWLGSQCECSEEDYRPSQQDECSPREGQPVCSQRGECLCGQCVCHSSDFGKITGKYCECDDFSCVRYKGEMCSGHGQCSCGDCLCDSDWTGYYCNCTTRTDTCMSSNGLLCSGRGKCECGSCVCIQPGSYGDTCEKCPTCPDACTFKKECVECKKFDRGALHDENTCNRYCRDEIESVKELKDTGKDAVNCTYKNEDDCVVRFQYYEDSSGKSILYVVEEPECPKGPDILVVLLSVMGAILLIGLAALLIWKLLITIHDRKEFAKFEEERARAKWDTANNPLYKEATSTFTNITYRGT

QGPRGDKGE (CQGPRGDKGEC; Synthetic: Synthetic collagen RGD containing peptide P-2) [Peptide P2, synthetic version of the soluble RGDKGE-containing collagen peptide]
induction of angiogenesis and inflammation in vivo [1]: significantly induced angiogenesis and inflammation | mean CD4+ Treg cell migration cell count [2]: significant increase | primary murine CD8+ T-cell migration ([3]; denatured collagen type-IV, SDF-1, compared to CP): selectively inhibited | primary murine CD8+ T-cell migration ([3]; native collagen type-IV, SDF-1): neither the RGDKGE (SEQ ID NO: 1) collagen peptide P2, nor the non-specific control peptide CP had any significant impact | binding to αvβ3 [4]: bound
